Test results reported in US10385372B2, “Methods for thaxtomin production and modified streptomyces with increased thaxtomin production” (priority 2014, dated 2019).

Key:
[1] = system: S. scabies CebR regulator (CebR-His6); experiment: Electromobility gel shift assay (EMSA) with CebR-His6 pre-incubated with cellobiose and cellooligosaccharides; format: binding, Streptomyces scabies; settings: EMSA of FIG. 4; for impairment of the CebR DNA-binding ability (quantification of shifted bands): CebR-His6 pre-incubated with oligosaccharide, Cy5-labelled cbs probes 6 nM
Experimental: Numbers 1 and 2 refer to EMSAs with free probes (6 nM) and with probes incubated with CebR-His6, respectively. Numbers 3 to 7 refer to EMSAs with CebR-His6 pre-incubated with oligosaccharides, i.e. cellobiose (3), cellotriose (4), cellotetraose (5), cellopentaose (6), and cellohexaose (7). Note that cellobiose (3) is the best oligosaccharide for preventing CebR interaction with all CebR-binding sites.
Electromobility gel shift assays (EMSAs) were performed in order to assess binding of the S. scabies CebR regulator (CebR^sca) to the in silico predicted cbs. The scab57761 gene was cloned into pET-22b and overexpressed in Escherichia coli Rosetta (DE3) cells. The resulting recombinant His-tagged CebR (CebR-His6) was purified from the IPTG-induced E. coli cytoplasmic extracts by Nickel-NTA affinity column. […] Under the same conditions, strong CebR-binding to cbs^cebE-R and cbs^bglC, which were used as positive controls of genes known to be directly controlled by CebR (Schlösser 2000; Marushima 2009), was observed (FIG. 3).
Experimental in vitro validations of predicted cis-acting elements allowed proposing a signaling pathway from cellobiose sensing and transport to thaxtomin biosynthesis (FIG. 5). […] Once inside the cell, cellobiose (and to a lesser extent cellotriose) prevents CebR-binding to cbs^txtR-A and cbs^txtB allowing expression of txtA, txtB and txtR. Consequently, TxtR complexed to cellobiose would be able to increase the expression levels of txtA and txtB, the thaxtomin biosynthetic genes.
EMSAs with 34-bp double-stranded probes (generated by PCR, Table 2) were performed using Cy5-labeled cbs probes (6 nM and 30 nM final concentration) and His6-tagged CebR at a final concentration between 0.08 and 3.2 μM in a total reaction volume of 50 μl. All reactions were carried out in EMSA buffer (10 mM Tris-HCl, pH 7.5, 1 mM dithiothreitol [DTT], 0.25 mM CaCl2, 0.5 mM MgCl2, 50 mM KCl, and 2% glycerol) containing excess of nonspecific DNA (salmon sperm DNA). After 15 min of incubation at room temperature, reaction mixtures were loaded onto a 1% (wt/vol) agarose gel. Bound and unbound probes were separated by gel electrophoresis for 30 min at 100 V at room temperature, and fluorescent DNA was visualized using a Typhoon Trio+ variable-mode imager (FRFC 2.4506.08).

[2] = system: S. scabies 87-22 and ΔcebR; experiment: Thaxtomin production on ISP-4 plates with and without cellobiose supply (HPLC); format: cell-based, Streptomyces scabies; settings: ISP-4 medium; wild-type or ΔcebR background; FIGS. 8A and 8B
Excerpt: FIGS. 8A-B illustrate genetic complementation of the cebR mutant scored by thaxtomin production on ISP-4 plates. […] Although pigmentation is not visible in the black and white photos, FIG. 8B is a graphic illustration HPLC analysis of thaxtomin production on the ISP-4 plates from FIG. 8A. […] Thaxtomin production is reverted back to wild-type levels when the mutation is genetically complemented (cebR mutant transformed with pRLIF8 containing the cebR gene and its promoter region).
The production of thaxtomin by both strains grown on ISP-4 with and without cellobiose supply was compared. […] The further increase in toxin production by the mutant upon addition of cellobiose is most likely due to the function of cellobiose as ligand of the transcriptional activator TxtR, which drives the expression of the thaxtomin biosynthetic genes txtA and txtB (Joshi et al. 2007) (FIG. 5).
Mycelial suspensions of S. scabies strains were prepared from 48-72 h-old TSB-grown cultures by pelleting the mycelia, washing twice with sterile water, and resuspending in 1 ml sterile water to obtain an optical density at 600 nm (OD600 mn) of 1.0. […] Thaxtomin A was purified from the supernatant and analyzed by HPLC as described previously (Johnson et al. 2007). […]

| SMILES | impairment of the CebR DNA-binding ability (quantification of shifted bands) [1] | allosteric effector inhibiting CebR from binding to its DNA targets ([1]; compared with cellotriose to cellohexaose) | effect of addition on thaxtomin production [2] |
| --- | --- | --- | --- |
| O=C[C@H](O)[C@@H](O)[C@H](O[C@@H]1O[C@H](CO)[C@@H](O)[C@H](O)[C@H]1O)[C@H](O)CO [cellobiose] | 56% | best allosteric effector | significant increase |
| OC[C@H]1O[C@@H](O[C@H]2[C@H](O)[C@@H](O)[C@H](O[C@H]3[C@H](O)[C@@H](O)[C@H](O[C@H]4[C@H](O)[C@@H](O)[C@H](O[C@H]5[C@H](O)[C@@H](O)[C@H](O[C@H]6[C@H](O)[C@@H](O)C(O)O[C@@H]6CO)O[C@@H]5CO)O[C@@H]4CO)O[C@@H]3CO)O[C@@H]2CO)[C@H](O)[C@@H](O)[C@@H]1O (some centres unmarked) [cellohexaose] | 12% |  |  |
| OC[C@H]1O[C@@H](O[C@H]2[C@H](O)[C@@H](O)[C@H](O[C@H]3[C@H](O)[C@@H](O)C(O)O[C@@H]3CO)O[C@@H]2CO)[C@H](O)[C@@H](O)[C@@H]1O (some centres unmarked) [cellotriose] | 20% |  |  |
